These results are taken from patent publication US6544750B1, “Peptide analogs as selective inhibitors of thrombin activation of protease activated receptor 1” (Thromgen, Inc., priority 1999, dated 2003).

Experiment [1] concerns platelets (platelet-rich plasma). Description: γ-thrombin-induced platelet aggregation in platelet-rich plasma. The experiment is classed as cell-based, human. As to conditions: for Fold Increase in Aggregation Inhibition over RPPGF: γ-thrombin, compared to RPPGF at 0.2 mM. As for the experimental part: (§1) Fresh whole blood was collected and mixed with 0.013 M sodium citrate and platelet-rich plasma was prepared according to the method of Meloni et al., J. Biol. Chem. 266, 6786 (1991). Platelet-rich plasma with a normalized platelet count between 2-2.5×10^8 platelets/ml was added to a cuvette of an aggregometer (Chronlog Corp., Havertown, Pa.), standardized using the protocol of Meloni et al., supra. Peptides to be examined were added to the cuvette and the mixture stabilized for a few moments. Once the baseline was stabilized, γ-thrombin (10-70 NM) (Haematologic Technologies, Essex Junction, Vt.) was added to determine the minimal concentration of the agonist necessary to achieve full platelet aggregation. All investigations with peptides were performed using threshold concentrations of γ-thrombin. Aggregation was allowed to proceed for 5 minutes before stopping. When ADP-induced platelet aggregation studies were performed, 1-5 μM ADP (Sigrna) was added to the cuvette containing platelet-rich plasma.

Experiment [2] has the same test system. Description: ADP-induced platelet aggregation in platelet-rich plasma. The experiment is classed as cell-based, human. As to conditions: 1 mM peptide, 4.5 μM ADP. As for the experimental part: as §1
Experiment [3] addresses biotin-NAT12 (NATLDPRSFLLR, peptide from PAR1) (Homo sapiens, UniProt P25116). Description: Biotin-NAT12 binding assay to peptides coupled to microtiter plates. Particulars: relative to RPPGF given arbitrary binding level of 1. As for the experimental part:
A third assay was developed to ascertain the ability of biotin-NAT12 (NATLDPRSFLLR, SEQ ID NO: 41) to directly bind to peptides linked to microtiter plates. In this assay, peptide analogs were linked to microtiter plate cuvette wells by incubation of the peptide in 0.1 M Na2CO3, pH 9.6 buffer overnight at 4° C. After coupling the peptide to the cuvette well, the wells were dumped and each well was blocked with 1% bovine serun albumin in 0.01 M Na3PO4, 0.15 M NaCl, at pH 7.4. After incubation for 1 hour, the wells were dumped and washed three times with PBS-Tween. The wells were then incubated with biotin-NAT12. The amount of biotin-NAT12 bound was determined by adding streptavidin-peroxidase followed by adding turbo TMB (Pierce).
In decreasing order of binding level, these peptides include: RGKSC, RGKMC, RGKHC, RGKKC, RGKFC, RGKLC, RGKWC, and RGKVC (SEQ ID NOS 18, 7, 13, 14, 11, 1, 5 and 19, respectively). […] The best to least RGDO4C (SEQ ID NO: 44) peptides to bind biotin-NAT12 listed in Table VI are: RGDSC, RGDGC, RGDQC, RGDEC, RGDIC, RGDPC, RGDDC, and RGDYC (SEQ ID NOS 34, 28, 23, 22, 36, 38, 27 and 35, respectively). A solid phase peptide-peptide binding assay was used to determine biotin-NAT12 binding to library peptides. Test peptides in 0.1 M Na2CO3, pH 9.6 buffer, at 10 μg/well in 50 μl volume, were coupled to microtiter plate wells by overnight incubation at 4° C. After incubation, the contents of the wells were discarded and the wells were washed with a pH 7.4 buffer containing 0.01 M Na3PO4, 0.15 M NaCl, and 0.01% Tween 20. After blocking each well with 1% radioimmunoassay grade bovine serum albumin, the linked peptides were incubated with 100 μl of 100 μM biotin-NAT12 for 1 hour at 37° C. After incubation, the contents of the wells were dumped and the wells were washed three times (100 μl/well each time) with the buffer identified above. Each well then was incubated with 100 μl of 2 μg/ml solution of Immuno-Pure streptoavidin horeseradish peroxidase conjugate (Pierce Chemical Co., […], Ill.) for 1 hour at room temperature. The contents of the wells were discarded and the wells were washed three times as described above. The wells were then incubated with 100 μl of peroxidase-specific fast reacting substrate, turbo-3,3′,5,5′-tetramethylbenzidine (turbo-TMB, Pierce) for 5 minutes at room temperature and the developing color reaction was stopped by the addition of 100 μof 1 M phosphoric acid. The absorbance was measured at 450 nm using a Microplate Auto Reader EL311 (Bio-Tek, Winooski, Vt.).

For experiment [4], the system named is Normal human lung fibroblasts (NHLF). Description: α-thrombin-induced calcium mobilization in fibroblasts (fura-2). The experiment is classed as cell-based. As to conditions: thrombin-induced calcium mobilization in fibroblasts, 0.2 mM peptide. As for the experimental part: The second assay developed to assess peptides from the combinatorial libraries uses inhibition of α-thrombin-induced calcium mobilization in fibroblasts. Normal human lung fibroblasts (NHLF) were purchased from Clonetics, San Diego, Calif., an affiliate of Bio-Wittaker, Walkersville, Md. The cytoplasmic free Ca^2+ concentration ([Ca^2+]i) was measured using the fluorescent Ca^2+ indicator fura-2 (Molecular Probes, Inc., Eugene, Oreg.). Suspension of fibroblasts in Hepes-Tyrode's buffer were loaded with fura-2 by incubation at 37° C. with 2 μM fura-2/acetoxymethyl ester for 45 minutes according to the method of Rasmussen et al., J. Biol. Chem. 268, 14322 (1993). The labeled fibroblasts were separated from excess probe by washing by centrifugation at 1000 rpm (180×g). Aliquots of the labeled fibroblasts were transferred into a quartz cuvette with a magnetic stirrer, which was then placed in a thennostatically controlled chamber at 37° C. in a fluorescence spectrophotometer (Perkin-Elmer LS50B spectrofluorometer, Chicago, Ill.). Reagents, test peptide (SEQ ID NO: 5) (from 0.2 mM to effective lower concentration), and α-thrombin (2-4 nM), were sequentially added directly to the cuvette. The excitation wavelengths varied between 340 and 380 nm. Fluorescence was measured by recording emitted light at 510 nm as reported by Fisher et al., Mol Pharm. 35, 195 (1989). The minimum emission was determined on a solubilized fibroblast sample in the presence of 10 mM EDTA; maximum emission was determined on the same sample with 10 mM Ca^2+ added. The intrafibroblast free Ca^2+ concentration was calculated by the method of Grykiewicz et al., J. Biol. Chem. 260, 3440 (1985). The ratio of the fluorescence readings was calculated as R=340/380 nm and processed according to the equation [Ca^2+]i=KD((R−Rmim)/Rmax−R)) (Sf2/Sb2) to determine the intrafibroblast free Ca^2+ concentration. The KD for fura-2 was assumed to be 224 nM. Rmax and Rmin are the maximum and minimum fluorescence ratios measured at the end of the experiment, respectively; Sf2 and Sb2 are the fluorescence values at 380 nm in the absence and presence of saturating [Ca 2+], respectively. The reaction was monitored for 3-5 minutes. […] In FIG. 4, peptide RGDWC (SEQ ID NO: 20) at 0.2 mM inhibited 31% of 4 nM α-thrombin-induced Ca^2+ mobilization in fibroblasts.

[5] abbreviates: RGKO4C sublibrary, platelet-rich plasma.

Consider “Arg-Pro-Pro-Gly-Phe (RPPGF) [bradykinin analog peptide used as control, reference compound]”, for which the “peptide concentration at which γ-thrombin-induced platelet aggregation returned” value in experiment [1] (70 nM γ-thrombin, platelet-rich plasma) was 0.25 mM. The “Fold Increase in Aggregation Inhibition over RPPGF” value in experiment [1] (RGDO4C sublibrary) was determined as 1 fold; in experiment [1] (setting [5]), 1.0 fold. Also, the “effect on ADP-induced platelet aggregation (in words)” value in experiment [2] was “did not inhibit”. The “Level of Binding to Biotin-NAT12” value came to 1 in experiment [3] (RGDO4C sublibrary) and 1.0 in experiment [3] (RGKO4C sublibrary).

Regarding “RGDMC: peptide of the H-R-G-D-O4-C-NH2 sublibrary (H-RGDMC-NH2)”, the “Fold Increase in Aggregation Inhibition over RPPGF” value in experiment [1] (RGDO4C sublibrary) turned out to be 15 fold. In addition, in experiment [4] (RGDO4C sublibrary), the “Ca2+ % Inhibition At 0.2 mM Peptide” value worked out at 26.2%. Besides, the “Level of Binding to Biotin-NAT12” value in experiment [3] (RGDO4C sublibrary) is 0.87.

With “RGDNC: peptide of the H-R-G-D-O4-C-NH2 sublibrary (H-RGDNC-NH2)”, the “Fold Increase in Aggregation Inhibition over RPPGF” value in experiment [1] (RGDO4C sublibrary) was 5 fold. Further, the “Ca2+ % Inhibition At 0.2 mM Peptide” value in experiment [4] (RGDO4C sublibrary) was determined as 44.3%. The “Level of Binding to Biotin-NAT12” value in experiment [3] (RGDO4C sublibrary) was 0.739.

For “RGDQC: peptide of the H-R-G-D-O4-C-NH2 sublibrary (H-RGDQC-NH2)”, the “Fold Increase in Aggregation Inhibition over RPPGF” value in experiment [1] (RGDO4C sublibrary) amounted to 15.8 fold. Further, the “Ca2+ % Inhibition At 0.2 mM Peptide” value in experiment [4] (RGDO4C sublibrary) was found to be 8.45%. For the same substance, the “Level of Binding to Biotin-NAT12” value in experiment [3] (RGDO4C sublibrary) came to 1.32.

For “RGDRC: peptide of the H-R-G-D-O4-C-NH2 sublibrary (H-RGDRC-NH2)”, the “Fold Increase in Aggregation Inhibition over RPPGF” value in experiment [1] (RGDO4C sublibrary) is recorded as 5 fold. In addition, the “Ca2+ % Inhibition At 0.2 mM Peptide” value in experiment [4] (RGDO4C sublibrary) came to 0%. Besides, in experiment [3] (RGDO4C sublibrary), the “Level of Binding to Biotin-NAT12” value was determined as 0.99.

Regarding “RGDTC: peptide of the H-R-G-D-O4-C-NH2 sublibrary (H-RGDTC-NH2)”, the “Fold Increase in Aggregation Inhibition over RPPGF” value in experiment [1] (RGDO4C sublibrary) is given as 7.5 fold. Moreover, in experiment [4] (RGDO4C sublibrary), the “Ca2+ % Inhibition At 0.2 mM Peptide” value is 0%. Moreover, the “Level of Binding to Biotin-NAT12” value in experiment [3] (RGDO4C sublibrary) came out at 0.746.

As for “RGDVC: peptide of the H-R-G-D-O4-C-NH2 sublibrary (H-RGDVC-NH2)”, in experiment [1] (RGDO4C sublibrary), the “Fold Increase in Aggregation Inhibition over RPPGF” value amounted to 15 fold. The “Ca2+ % Inhibition At 0.2 mM Peptide” value in experiment [4] (RGDO4C sublibrary) came out at 2.56%. For the same substance, in experiment [3] (RGDO4C sublibrary), the “Level of Binding to Biotin-NAT12” value came to 0.723.

As for “RGDYC: peptide of the H-R-G-D-O4-C-NH2 sublibrary (H-RGDYC-NH2)”, the “Fold Increase in Aggregation Inhibition over RPPGF” value in experiment [1] (RGDO4C sublibrary) was 5 fold. Further, in experiment [4] (RGDO4C sublibrary), the “Ca2+ % Inhibition At 0.2 mM Peptide” value is 16.4%. Besides, in experiment [3] (RGDO4C sublibrary), the “Level of Binding to Biotin-NAT12” value was 1.05.

“RGKIC: peptide of the H-R-G-K-O4-C-NH2 sublibrary (H-RGKIC-NH2)”: the “Fold Increase in Aggregation Inhibition over RPPGF” value in experiment [1] (setting [5]) is listed as 1.3 fold. Besides, the “Ca2+ % Inhibition At 0.2 mM Peptide” value in experiment [4] (RGKO4C sublibrary) is 13.8%. Besides, the “Level of Binding to Biotin-NAT12” value in experiment [3] (RGKO4C sublibrary) was 0.98.

For “RGKLC: peptide of the H-R-G-K-O4-C-NH2 sublibrary (H-RGKLC-NH2)”, the “Fold Increase in Aggregation Inhibition over RPPGF” value in experiment [1] (setting [5]) amounted to 7.7 fold. Further, in experiment [4] (RGKO4C sublibrary), the “Ca2+ % Inhibition At 0.2 mM Peptide” value came to 8.33%. In addition, in experiment [3] (RGKO4C sublibrary), the “Level of Binding to Biotin-NAT12” value is 1.5.

“RGKMC: peptide of the H-R-G-K-O4-C-NH2 sublibrary (H-RGKMC-NH2)”: the “Fold Increase in Aggregation Inhibition over RPPGF” value in experiment [1] (setting [5]) was 1.3 fold. Further, the “Ca2+ % Inhibition At 0.2 mM Peptide” value in experiment [4] (RGKO4C sublibrary) is 7.95%. For the same substance, the “Level of Binding to Biotin-NAT12” value in experiment [3] (RGKO4C sublibrary) was found to be 2.1.

With “RGKRC: peptide of the H-R-G-K-O4-C-NH2 sublibrary (H-RGKRC-NH2)”, in experiment [1] (setting [5]), the “Fold Increase in Aggregation Inhibition over RPPGF” value is reported as 2.5 fold. The “Ca2+ % Inhibition At 0.2 mM Peptide” value in experiment [4] (RGKO4C sublibrary) was 35.7%. The “Level of Binding to Biotin-NAT12” value in experiment [3] (RGKO4C sublibrary) is given as 0.38.

As to “RGKTC: peptide of the H-R-G-K-O4-C-NH2 sublibrary (H-RGKTC-NH2)”, the “Fold Increase in Aggregation Inhibition over RPPGF” value in experiment [1] (setting [5]) was found to be 4.4 fold. In addition, the “Ca2+ % Inhibition At 0.2 mM Peptide” value in experiment [4] (RGKO4C sublibrary) is 26.8%. In addition, the “Level of Binding to Biotin-NAT12” value in experiment [3] (RGKO4C sublibrary) was 0.597.

On to “RGKYC: peptide of the H-R-G-K-O4-C-NH2 sublibrary (H-RGKYC-NH2)”, for which the “Fold Increase in Aggregation Inhibition over RPPGF” value in experiment [1] (setting [5]) is given as 1.3 fold. In addition, in experiment [4] (RGKO4C sublibrary), the “Ca2+ % Inhibition At 0.2 mM Peptide” value was determined as 0%. Besides, in experiment [3] (RGKO4C sublibrary), the “Level of Binding to Biotin-NAT12” value was 0.94.
